# Reference: patent US4025555A, “Aromatic amidines as antiviral agents in animals” (Pfizer Inc., priority 1976, dated 1977)
# Several values for one entry are separate records, joined by “and”; a condition that tells them apart may be missing. Equal values may be shown once.
# Test system: circulating interferon
# Assay: not given
# Set-up: species or system female Swiss mice
# Details: mouse, in vivo, ip
row,Structure (SMILES),Plasma Interferon Levels
1,CCCCCCCCCCCCCCCCN(CCCCCCCCCCCCCCCC)Cc1cccc(C(=N)Nc2ccc(O)c(C)c2)c1 [Example 30],66 units/ml. and 87 units/ml. and 61 units/ml. and 64 units/ml.

# Test system: encephalomyocarditis (EMC) virus
# Assay: Antiviral activity in mice challenged with lethal dose of encephalomyocarditis (EMC) virus (survival, relative survival, ED50)
# Assay type: in vivo, female albino mice
# Details: Mus musculus, ip, 240 h; as mg. dihydrochloride salt; i.p. 18-24 h before EMC virus challenge; day 10; read-out: ED50
# Method: The antiviral activity of the compounds of formula I is determined by the following procedure. The test compound is administered to mice by the intraperitoneal route eighteen to twenty-four hours prior to challenging them with a lethal dose of encephalomyocarditis (EMC) virus. The survival rate is determined ten days after challenge and an ED50 [dosage level (mg of compound/kg body weight) required to obtain a fifty percent survival rate] calculated. The procedure in which the drug is given eighteen to twenty-four hours before, and at a distinctly different site from, virus injection is designed to eliminate local effects between drug and virus and identify only those compounds which produce a systemic antiviral response.
# Three groups of ten female albino mice (20-25 g. body weight) were given single 0.5 ml. intraperitoneal injections containing dosage levels of 1.5, 5, and 15 mg. of the named compound/kg. body weight, respectively. A fourth control group was given no such injection. Eighteen to twenty-four hours later all four groups were challenged with a 0.2 ml. subcutaneous injection containing 20-30 times the LD50, the dosage level causing a 50% death rate in ten days, of encephalomyocarditis (EMC) virus. The following survival data were recorded for the following ten days:
# Antiviral activity is expressed as the relative survival (Sr) in experimental groups compared to the controls on the tenth day after challenge. Sr is defined by the formula [formula] wherein Sr = relative survival […]
# Sx = percent survival after ten days in experimental group xi = number of survivors on the ith day in experimental group ei = number of survivors on the ith day in control group
# The ED50 [dosage level (mg. of compound/kg. body weight) required to obtain a fifty percent survival rate] is determined graphically by plotting Sr (ordinate) vs. 1n dosage level (abscissa) and then fitting the points with a line of predetermined slope by least squares. The dosage level at which this fitted line has an ordinate of 50 is equivalent to the ED50.
# In like manner to that described in Example 113 the antiviral activity was determined for the compounds listed below.
row,Structure (SMILES),ED50 [mg/kg]
1,"CCCCCCCCCCCCCCCCN(CCCCCCCCCCCCCCCC)Cc1cccc(C(=N)N)c1 [Example 2, m-[N,N-Di-(n-hexadecyl)aminomethyl]-benzamidine]",4.7
2,"CCCCCCCCCCCCCCCCN(CCCCCCCCCCCCCCCC)Cc1cccc(C(=N)NC(=O)C(=O)O)c1 [Example 4, m-[N,N-Di(n-hexadecyl)aminomethyl]-N-oxoacetic acid-benzamidine]",9.9
3,"CCCCCCCCCCCCCCCCN(CCCCCCCCCCCCCCCC)Cc1cccc(C(=N)Nc2ccc(OC)cc2)c1 [Example 6, m-[N,N-Di(n-hexadecyl)aminomethyl]-N-(p-methoxyphenyl)-benzamidine]",5.3
4,CCCCCCCCCCCCCCCCN(CCCCCCCCCCCCCCCC)Cc1cccc(C(=N)Nc2ccccc2)c1 [Example 7],12.3
5,CCCCCCCCCCCCCCCCN(CCCCCCCCCCCCCCCC)Cc1cccc(C(=N)Nc2ccc(Cl)cc2)c1 [Example 8],16
6,CCCCCCCCCCCCCCCCN(CCCCCCCCCCCCCCCC)Cc1cccc(C(=N)Nc2ccc(C)cc2)c1 [Example 9],7.7
7,CCCCCCCCCCCCCCCCN(CCCCCCCCCCCCCCCC)Cc1cccc(C(=N)Nc2ccccn2)c1 [Example 10],49.3
8,CCCCCCCCCCCCCCCCN(CCCCCCCCCCCCCCCC)Cc1cccc(C(=N)Nc2ccc(Cl)cc2Cl)c1 [Example 11],35.7
9,CCCCCCCCCCCCCCCCN(CCCCCCCCCCCCCCCC)Cc1cccc(C(=N)Nc2ccc(O)cc2)c1 [Example 12],4.9
10,CCCCCCCCCCCCCCCCN(CCCCCCCCCCCCCCCC)Cc1cccc(C(=N)Nc2cccc([N+](=O)[O-])c2)c1 [Example 13],21.6
11,CCCCCCCCCCCCCCCCN(CCCCCCCCCCCCCCCC)Cc1cccc(C(=N)Nc2ccc(N(C)C)cc2)c1 [Example 14],8
12,CCCCCCCCCCCCCCCCN(CCCCCCCCCCCCCCCC)Cc1cccc(C(=N)Nc2ccc(F)cc2)c1 [Example 15],38
13,CCCCCCCCCCCCCCCCN(CCCCCCCCCCCCCCCC)Cc1cccc(C(=N)Nc2ccc(S(N)(=O)=O)cc2)c1 [Example 16],7
14,CCCCCCCCCCCCCCCCN(CCCCCCCCCCCCCCCC)Cc1cccc(C(=N)Nc2ncccn2)c1 [Example 17],12.9
15,CCCCCCCCCCCCCCCCN(CCCCCCCCCCCCCCCC)Cc1cccc(C(=N)Nc2ccc(OCC)cc2)c1 [Example 18],17.9
16,CCCCCCCCCCCCCCCCN(CCCCCCCCCCCCCCCC)Cc1cccc(C(=N)Nc2ccc(S(C)(=O)=O)cc2)c1 [Example 19],8.9
17,"CCCCCCCCCCCCCCCCN(CCCCCCCCCCCCCCCC)Cc1cccc(C(=N)NC2CCCC2)c1 [Example 20, m-[N,N-Di(n-hexadecyl)aminomethyl]-N-cyclopentyl-benzamidine]",27.3
18,CCCCCCCCCCCCCCCCN(CCCCCCCCCCCCCCCC)Cc1cccc(C(=N)Nc2nc(C)cs2)c1 [Example 21],47.5
19,CCCCCCCCCCCCCCCCN(CCCCCCCCCCCCCCCC)Cc1cccc(C(=N)NCc2ccccc2)c1 [Example 22],7.8
20,"CCCCCCCCCCCCCCCCN(CCCCCCCCCCCCCCCC)Cc1cccc(C(=N)NN(C)C)c1 [Example 23, m-[N,N-di(n-hexadecyl)aminomethyl]-N-dimethylamino-benzamidine]",5
21,"CCCCCCCCCCCCCCCCN(CCCCCCCCCCCCCCCC)Cc1cccc(C(=N)NC(C)C)c1 [Example 25, m-[N,N-di(n-hexadecyl)aminomethyl]-N-(2-propyl)-benzamidine]",2.8
22,CCCCCCCCCCCCCCCCN(CCCCCCCCCCCCCCCC)Cc1cccc(C(=N)NCC)c1 [Example 26],7.6
23,"CCCCCCCCCCCCCCCCN(CCCCCCCCCCCCCCCC)Cc1cccc(C(=N)NC)c1 [Example 27, m-[N,N-di(n-hexadecyl)aminomethyl]-N-methyl-benzamidine]",5.7
24,"CCCCCCCCCCCCCCCCN(CCCCCCCCCCCCCCCC)Cc1cccc(C(=N)NCC(F)(F)F)c1 [Example 28, m-[N,N-Di(n-hexadecyl)aminomethyl]-N-(2,2,2-trifluoroethyl)-benzamidine]",3.8
25,CCCCCCCCCCCCCCCCN(CCCCCCCCCCCCCCCC)Cc1cccc(C(=N)NCC2CC2)c1 [Example 29],6.9
26,CCCCCCCCCCCCCCCCN(CCCCCCCCCCCCCCCC)Cc1cccc(C(=N)Nc2ccc(O)c(C)c2)c1 [Example 30],7.7
27,CCCCCCCCCCCCCCCCN(CCCCCCCCCCCCCCCC)Cc1cccc(C(=N)NCCc2cnc[nH]2)c1 [Example 31],11.7
28,CCCCCCCCCCCCCCCCN(CCCCCCCCCCCCCCCC)Cc1cccc(C(=N)Nc2ccc([N+](C)(C)C)cc2)c1 [Example 32],7.4
29,CCCCCCCCCCCCCCCCN(CCCCCCCCCCCCCCCC)Cc1cccc(C(=N)Nc2ccc(O)cc2O)c1 [Example 33],37.2

# Same assay, conditions: Mus musculus, ip, 240 h; as mg. free base (Example 115); i.p. 18-24 h before EMC virus challenge; day 10; read-out: ED50
row,Structure (SMILES),ED50 [mg/kg]
1,"CCCCCCCCCCCCCCCCN(CCCCCCCCCCCCCCCC)Cc1cccc(C(=N)NCCCS(=O)(=O)O)c1 [Example 3, m-[N,N-Di(n-hexadecyl)aminomethyl]-N-(n-propane)sulfonic acid-benzamidine]",8

# Same assay, conditions: Mus musculus, ip, 240 h; i.p. 18-24 h before s.c. EMC virus challenge; graphical, day 10; read-out: ED50 (dosage level required to obtain a fifty percent survival rate)
row,Structure (SMILES),ED50 [mg/kg]
1,"C=CCNC(=N)c1cccc(CN(CCCCCCCCCCCCCCCC)CCCCCCCCCCCCCCCC)c1 [Example 24, m-[N,N-di(n-hexadecyl)aminomethyl]-N-allyl-benzamidine]",4.7

# Same assay, conditions: mouse, in vivo, ip
Structure (SMILES),Number of Survivors on Day 0,Number of Survivors on Day 1,Number of Survivors on Day 2,Number of Survivors on Day 3,Number of Survivors on Day 4,Number of Survivors on Day 5,Number of Survivors on Day 6
"C=CCNC(=N)c1cccc(CN(CCCCCCCCCCCCCCCC)CCCCCCCCCCCCCCCC)c1 [Example 24, m-[N,N-di(n-hexadecyl)aminomethyl]-N-allyl-benzamidine]",10,10,10,10,9 and 10,8 and 6 and 5,8 and 6 and 4
